Test results published in patent publication US20040009485A1, “Cellular arrays for the identification of altered gene expression” (priority 2002, published 2004).
Where “and” joins values, the source holds several entries; their conditions need not be identical. Equal entries are not always repeated.

How the values were obtained:
SOS regulon gene fusions = test: Stress response of SOS regulon luxCDABE gene fusions (nalidixic acid); assay type: cell-based, E. coli; conditions: for Nalidixic acid response ratio: 5 μg/ml, 110 minutes, LB, treated/untreated
Protocol: To test the stress responses, one or two single colonies of each selected strain were used to inoculate 5.0 ml of LB medium containing 150 μg/ml of ampicillin. These cultures were grown overnight at 37° C. then diluted by adding 50 μl or 100 μl of the overnight culture into 10.0 ml of fresh LB medium (without ampicillin) and grown with agitation at 37° C. until the culture was in exponential phase with readings on a Klett-Summerson colorimeter containing the red filter of between 10 and 40. These actively growing cultures were immediately used to initiate a stress response experiment by adding 50 μl of cultures to 50 μl of LB medium containing various concentrations of chemical in the wells a 96 well luminometer plate. This division of the actively growing culture at the time of chemical addition ensured identical populations were present when the stress was imposed. Light production was measured in a Dynex ML3000 luminometer at 37° C. The dimensionless units of light production, relative light units (RLU), are obtained by comparison with the light reading from an internal light-emitting diode. The cycle mode of the ML3000 luminometer, similar to previous descriptions (Van Dyk et al., Appl. Environ. Microbiol. 60:1414-120) was used.
The ability of these promoter-luxCDABE fusions to report activation of the SOS stress response was tested using nalidixic acid, a known, potent chemical inducer. The final concentrations of nalidixic acid were 1, 5, 25, and 125 μg/ml for all but strain DPD2293, which was tested at 80, 40, 20, 10, 5, 2.5, and 1.25 μg/ml.
Specificity of responses was tested by measuring the effect of ethanol on these SOS regulon gene fusions.

[1] = tested on: LuxArray 1.0 luxCDABE gene fusions; test: LuxArray 1.0 solid phase identification of nalidixic acid responsive gene fusions; assay type: cell-based, E. coli; conditions: 5 μg/ml, duplicate spots; for Solid expt NA/LB, t = 2 hr / Solid expt NA/LB, t = 4 hr / Solid expt NA/LB, t = 6 hr / Solid expt NA/LB, t = 8 hr: normalized; for upregulation on LuxArray 1.0: 4 hours of nalidixic acid treatment
Source text: The genome-registered Lux-A luxCDABE gene fusion collection. (described in Example 1) provided a list of 4988 plasmid-borne gene fusions, each with boundary information relative to the E. coli genome and the orientation relative to the lux operon. An operably linked or a functional construct was defined as one consisting of a genomic fragment encompassing a promoter adjacent to the promoterless lux operon in an orientation that causes transcription initiated at the promoter to proceed into and through the lux operon. Therefore, to identify the functional subset of the collection, criteria were computationally applied to filter the list of clones first for functionality and second for redundancy. A list of definitions of documented and predicted operons (Thieffry et al. (1998) Bioinformatics 14:391-400) was used to define genomic coordinates of the operons as the translational start codon position of the first open reading frame (ORF) in the operon and the translational stop codon position of the last ORF in the operon. Additional information included the strand on which the operon is coded (direction of transcription), and gene names (common or “b” number). The lux gene fusions were filtered computationally using the following assumptions; (i) a functional transcriptional fusion would result from any genomic fragment starting greater than 50 base pairs upstream of the start codon of the first ORF and ending anywhere between the start codon of the first ORF in the operon and the stop codon of the last ORF in the operon, thereby eliminating the occurrence of a transcriptional stop signal in the construct between the promoter and the lux operon; and (ii) the promoter contained in the genomic fragment must face in the correct orientation relative to the lux operon (pictorially represented in FIG. 6). Finally, in cases when more then one clone fit the criteria for a single operon, only the one construct containing the genomic fragment representing the greatest amount of upstream sequence was retained thereby eliminating redundancy. The PERL code used and the resulting list of 689 selected gene fusions are found in Scheme 1 and Table 18 (following Example 7). These fusions represent 27% of the 2584 known and predicted transcriptional units in the E. coli genome. Individual cultures of strains containing the identified gene fusions were rearranged from the ninety original culture plates to create a set of sixteen 96-well microplates containing all the identified fusions, duplicated with side by side symmetry, including appropriately placed controls. These 16 plates represent were used to generate the cellular arrays for use in subsequent analyses.
The E. coli strains were grown overnight at 37° C. in […]) LB medium supplemented with 100 μg/ml ampicillin in a set of sixteen 96-well dishes. These cultures were designated “printing plates” and were used as the cell source to manufacture the arrays. Porous membranes (Biodyne B, Nunc) were sterilized with UV illumination for 10 min then placed in contact with pre-warmed of solid LB growth media in a culture dish (OmniTray, Nunc). Printing of 4×4 subarrays was accomplished using a BioMek 2000 (Beckman Coulter) equipped with a High Density Replication Tool (HDRT). […] After sterilization, the pins are air-dried prior to the next transfer. The E. coli strains in the LuxArray were printed onto an approximately 8×12 cm membrane in two sets of triplicates.
Arrays were printed from fresh overnight cultures onto membranes on plates containing LB media. Alter 6 hr of growth at 37° C. membranes were moved to pre-warmed plates containing either LB media or LB media supplemented with 5 μg/ml nalidixic acid then replaced at 37° C. to continue growing. Images were collected for each array every two hours from 0-8 hr after relocation using a cooled CCD camera (FluorChem 8000: f0.85 lens, 2 min exposure, AlphaInnotech). […]

[2] = 1pxA 1pxB rnhB dnaE fusion (lux-a.pk061.c3), listed as NA
[3] = b1728 fusion (lux-a.pk033.c5), listed as NA
[4] = b1936 fusion (lux-a.pk0019.g1), listed as NA
[5] = dinG ybiB fusion (lux-a.pk0024.f5), listed as NA
[6] = dinP fusion (lux-a.pk055.a3), listed as NA
[7] = fusion (lux-a.pk0015.d6), listed as NA
[8] = oraA fusion (lux-a.pk058.f5), listed as NA
[9] = uvrA fusion (lux-a.pk0001.b6), listed as NA
[10] = yaaF fusion (lux-a.pk031.e7), listed as NA
[11] = yfhJ fdx hscA yfhE fusion (lux-a.pk0019.g2), listed as NA

SMILES: CCn1cc(C(=O)O)c(=O)c2ccc(C)nc21 [Nalidixic acid, nalidixic acid]
- Nalidixic acid response ratio (SOS regulon gene fusions; dinF fusion, DPD2247 (lux-a.pk085.a5)): 2.2
- Nalidixic acid response ratio (SOS regulon gene fusions; dinG fusion, DPD2248 (lux-a.pk0024.f5)): 2.0
- Nalidixic acid response ratio (SOS regulon gene fusions; dinP fusion, DPD2249 (lux-a.pk055.a3)): 5.0
- bioluminescence compared with untreated culture (SOS regulon gene fusions; each of the eight SOS fusion strains, at least three concentrations (1-125 μg/ml; DPD2293 1.25-80 μg/ml)): increased bioluminescence
- Nalidixic acid response ratio (SOS regulon gene fusions; recA fusion, DPD2250 (lux-a.pk022.d4)): 1.8
- Nalidixic acid response ratio (SOS regulon gene fusions; recA fusion, DPD2251 (lux-a.pk085.b5)): 2.8
- Nalidixic acid response ratio (SOS regulon gene fusions; ruvA fusion, DPD2293 (lux-a.pk058.f2)): 4.6
- Nalidixic acid response ratio (SOS regulon gene fusions; uvrA fusion, DPD2253 (lux-a.pk01.b6)): 1.4
- Nalidixic acid response ratio (SOS regulon gene fusions; uvrD fusion, DPD2254 (lux-a.pk052.b6)): 1.2
- Solid expt NA/LB, t = 2 hr [1, 2]: 3.5 and 2.7
- Solid expt NA/LB, t = 4 hr [1, 2]: 3.1 and 3.5
- Solid expt NA/LB, t = 6 hr [1, 2]: 2.8 and 3.0
- Solid expt NA/LB, t = 8 hr [1, 2]: 1.7 and 1.9
- Solid expt NA/LB, t = 2 hr [1, 3]: 3.7 and 2.1
- Solid expt NA/LB, t = 4 hr [1, 3]: 4.3 and 3.1
- Solid expt NA/LB, t = 6 hr [1, 3]: 3.2 and 3.3
- Solid expt NA/LB, t = 8 hr [1, 3]: 2.6 and 2.5
- Solid expt NA/LB, t = 2 hr [1, 4]: 2.5 and 4.4
- Solid expt NA/LB, t = 4 hr [1, 4]: 7.7 and 8.2
- Solid expt NA/LB, t = 6 hr [1, 4]: 9.7 and 15.5
- Solid expt NA/LB, t = 8 hr [1, 4]: 7.1 and 10.2
- Solid expt NA/LB, t = 2 hr [1, 5]: 2.5 and 3.4
- Solid expt NA/LB, t = 4 hr [1, 5]: 3.7 and 4.2
- Solid expt NA/LB, t = 6 hr [1, 5]: 3.5 and 3.1
- Solid expt NA/LB, t = 8 hr [1, 5]: 2.9 and 2.6
- Solid expt NA/LB, t = 2 hr [1, 6]: 3.1 and 5.5
- Solid expt NA/LB, t = 6 hr [1, 6]: 4.2 and 8.1
- Solid expt NA/LB, t = 4 hr ([1]; frvR frvX frvB frvA fusion (lux-a.pk046.e6)): 2.3
- Solid expt NA/LB, t = 2 hr ([1]; frvR frvX frvB frvA fusion (lux-a.pk046.e6), listed as NA): 2.8 and 2.1
- Solid expt NA/LB, t = 2 hr [1, 7]: 2.3 and 2.2
- Solid expt NA/LB, t = 4 hr [1, 7]: 6.4 and 4.1
- Solid expt NA/LB, t = 6 hr [1, 7]: 2.7 and 1.9
- Solid expt NA/LB, t = 8 hr [1, 7]: 0.6 and 0.8
- Solid expt NA/LB, t = 2 hr [1, 8]: 5.1 and 4.7
- Solid expt NA/LB, t = 4 hr [1, 8]: 7.9 and 7.7
- Solid expt NA/LB, t = 6 hr [1, 8]: 5.9 and 5.6
- Solid expt NA/LB, t = 8 hr [1, 8]: 3.9 and 3.8
- upregulation on LuxArray 1.0 ([1]; ruvA fusion): 1.7 fold and 2.1 fold
- Solid expt NA/LB, t = 2 hr [1, 9]: 2.5 and 2.9
- Solid expt NA/LB, t = 4 hr [1, 9]: 2.3 and 2.4
- Solid expt NA/LB, t = 6 hr [1, 9]: 1.6 and 1.1
- Solid expt NA/LB, t = 8 hr [1, 9]: 1.0 and 0.6
- upregulation on LuxArray 1.0 ([1]; uvrD fusion): 1.6 fold and 1.9 fold
- Solid expt NA/LB, t = 2 hr [1, 10]: 2.1 and 2.0
- Solid expt NA/LB, t = 4 hr [1, 10]: 2.0 and 2.1
- Solid expt NA/LB, t = 6 hr [1, 10]: 1.3 and 1.8
- Solid expt NA/LB, t = 8 hr [1, 10]: 1.0 and 1.5
- Solid expt NA/LB, t = 2 hr ([1]; yfhJ fdx hscA yfhE fusion (lux-a.pk0019.g2)): 2.1
- Solid expt NA/LB, t = 4 hr [1, 11]: 2.0 and 2.2
- Solid expt NA/LB, t = 6 hr [1, 11]: 1.7 and 1.5
- Solid expt NA/LB, t = 8 hr [1, 11]: 1.4 and 1.3
- Solid expt NA/LB, t = 4 hr ([1]; yigN fusion (lux-a.pk046.f11), listed as NA): 2.5 and 4.3
